In data set [1] the test system is Plasmodium falciparum. In words: NOVARTIS: Inhibition of Plasmodium falciparum W2 (drug-resistant) proliferation in erythrocyte-based infection assay. It is filed as functional, organism-based. The conditions noted are these: Plasmodium falciparum, W2; read-out: EC50.
Data set [2] can be described thus: NOVARTIS: Cytotoxicity against human hepatocellular carcinoma cell line (Huh7). It is filed as toxicity, cell-based, Huh-7. Conditions: Huh7 cells (hepatocellular carcinoma cell line).
Data set [3] concerns Plasmodium falciparum. Put plainly: NOVARTIS: Inhibition of Plasmodium falciparum 3D7 (drug-susceptible) proliferation in erythrocyte-based infection assay. It is filed as functional, organism-based. Conditions: Plasmodium falciparum, 3D7.

Data on 53 compounds can be found in ChEMBL document CHEMBL1156829 (Proc Natl Acad Sci U S A, 2008).

SMILES strings stand for the structures. Bounds are passed on as bounds.

The EC50 is the concentration needed to bring the measured effect to its halfway point. In general, CC50 refers to the concentration giving 50% cytotoxicity. Read a high CC50 as better tolerance by the cells.

As for `CCC1CN2CCC1CC2C(O)c1ccnc2ccccc12` (centres undefined), the EC50 was determined as 627 nM in data set [1] and 299 nM in data set [3]. Also, in data set [2], the CC50 was > 100 µM.
In the case of `CCNC(=O)N(CCCCOc1ccc(C(C)(C)CC)cc1C(C)(C)CC)Cc1ccc(OC)c(OCc2ccccc2)c1`, the 50% effective concentration (EC50) was found to be 61 nM in data set [1] and 595 nM in data set [3]. Also, the cytotoxic concentration (CC50) in data set [2] is > 10 µM.
On the same counts, the results for `O=C(Nc1nc(-c2ccccn2)cs1)c1ccc(Oc2ccc(C(=O)Nc3nc(-c4ccccn4)cs3)cc2)cc1` are 602 nM, 2240 nM and > 100 µM.
For `O=C(Nc1ccc(C2=NCCN2)cc1)Nc1cc(C(=O)Nc2ccc(C3=NCCN3)cc2)ccc1C(=O)Nc1ccc(C2=NCCN2)cc1`, the EC50 in data set [1] was found to be 62.9 nM; in data set [3], 99.7 nM. In addition, in data set [2], the CC50 is > 10 µM.
On the same counts, the results for `O=C(Nc1ccon1)c1cc(-c2cccnc2)nc2ccc(Cl)cc12` are 606 nM, 1500 nM and > 100 µM.
On the same counts, the results for `CN(C)CCCNc1ncnc2c1[nH]c1ccc(F)cc12` are 305 nM, 93.1 nM and 48.7 µM.
Turning to `Cc1cc(-c2ccc(O)c(CN3CCCCCC3)c2)c2ccccc2n1`, the EC50 in data set [1] was 345 nM; in data set [3] it was 1120 nM. This compound came in with a half-maximal cytotoxic concentration (CC50) in data set [2] of 55.9 µM.
In the same order, the values of `CCc1noc(C)c1C(=O)NCCN1Cc2ccccc2OC(c2ccsc2)C1` (centres undefined) are 615 nM, 827 nM and > 100 µM.
On the same counts, the results for `CCCN1CCc2c(sc3nc(SC)n(-c4ccccc4)c(=O)c23)C1` are 627 nM, 947 nM and > 100 µM.
`COc1ccc(CCNC2(Cc3ccccc3)CC(C)N(C)CC2C)cc1OC` (centres undefined): the concentration giving a half-maximal response (EC50) in data set [1] amounted to 268 nM; in data set [3], 620 nM. In data set [2], this compound returned a half-maximal cytotoxic concentration (CC50) of 42.7 µM.
In the same order, the values of `CC(=O)N1CCC(N(C(=O)Nc2c(F)cccc2F)C(C)C)CC1` are 625 nM, > 12500 nM and > 100 µM.
In the same order, the values of `COc1cc(C(Nc2ccccn2)c2ccc3cccnc3c2O)cc(Br)c1OC` (centres undefined) are 219 nM, 368 nM and > 35 µM.
On the same counts, the results for `COc1ccc(C2Nc3ccc([N+](=O)[O-])cc3C3C=CCC32)cc1[N+](=O)[O-]` (centres undefined) are 616 nM, 1500 nM and > 100 µM.
Regarding `CCCCn1c(=N)n(CC(O)c2ccc(Br)cc2)c2ccccc21` (centres undefined), the EC50 in data set [1] worked out at 141 nM; in data set [3] it was 466 nM. The same compound gave a 50% cytotoxic concentration (CC50) in data set [2] of 22.5 µM.
On the same counts, the results for `CC(=O)N(Cc1ccc(F)cc1)C1=C(NCCc2ccccc2)C(=O)c2ccccc2C1=O` are 18.2 nM, 5.93 nM and 2.91 µM.
In the same order, the values of `O=C(Nc1ccc(O)cc1)c1cccc(S(=O)(=O)N2CCCCC2)c1` are 621 nM, 6910 nM and > 100 µM.
In the same order, the values of `C=CCc1cc(-c2cc(CC=C)c(O)c(CN(CC)CC)c2)cc(CN(CC)CC)c1O` are 61.9 nM, 273 nM and > 10 µM.
`CCC(CC)CN1CCC(O)(c2ccc3oc(C(=O)Nc4ccc(OC)cc4)cc3c2)CC1`: the 50% effective concentration (EC50) in data set [1] worked out at 617 nM; in data set [3], 954 nM. Besides, the CC50 in data set [2] was > 100 µM.
On the same counts, the results for `CCCC(c1nnnn1C1CCCCC1)N1CCN(C(=O)c2ccco2)CC1` (centres undefined) are 616 nM, 1330 nM and > 100 µM.
On the same counts, the results for `Cc1ccc(-n2c(C)c(C(=O)c3ccccc3)c3cc(O)ccc32)cc1` are 615 nM, 508 nM and > 100 µM.
In the same order, the values of `O=C(Cn1c2ccccc2c(=O)c2ccccc21)Nc1ccc([N+](=O)[O-])c(Br)c1` are 632 nM, 1110 nM and > 100 µM.
In the case of `O=C(NCc1ccco1)C1CCN(S(=O)(=O)c2ccc(Br)cc2)CC1`, the half-maximal effective concentration (EC50) was 629 nM in data set [1] and 362 nM in data set [3]. Further, the CC50 in data set [2] is > 100 µM.
As for `Cc1ccc2c(c1)NC(c1ccc(F)cc1)C1=C(CC(c3ccccc3)CC1=O)N2` (centres undefined), the results for the EC50 in data set [1] and in data set [3] were 635 nM and 833 nM, respectively. In data set [2], the 50% cytotoxic concentration (CC50) was > 100 µM.
In the same order, the values of `COc1ccc(Nc2nc(NN=Cc3cccc([N+](=O)[O-])c3OC)nc(Nc3ccc([N+](=O)[O-])cc3)n2)cc1` are 635 nM, 221 nM and > 100 µM.
In the same order, the values of `COC(=O)C1=C(C)NC2=C(C(=O)CC(C)(C)C2)C1c1ccc(C)o1` (centres undefined) are 638 nM, 1580 nM and > 100 µM.
On the same counts, the results for `OC1(c2cccc3ccccc23)CCN(Cc2ccccc2)C1` (centres undefined) are 148 nM, 457 nM and 23.1 µM.
As to `Cc1ccn2c(NC(C)(C)CC(C)(C)C)c(-c3ccccc3OC(=O)/C=C/c3ccc([N+](=O)[O-])cc3)nc2c1`, the EC50 is 63.7 nM in data set [1] and > 1390 nM in data set [3]. Also, the cytotoxic concentration (CC50) in data set [2] is > 10 µM.
Turning to `CCOc1ccc(C(=O)Cn2ccc(=NCc3ccccc3)cc2)cc1[N+](=O)[O-]`, the EC50 came to 121 nM in data set [1] and 69.7 nM in data set [3]. The same compound came in with a half-maximal cytotoxic concentration (CC50) in data set [2] of 20.1 µM.
On the same counts, the results for `COc1cccc(C(Nc2cc(C)ccn2)c2ccc3cccnc3c2O)c1` (centres undefined) are 562 nM, 1110 nM and > 93.5 µM.
On the same counts, the results for `COc1ccc(CC2NCC(O)C2OC(C)=O)cc1` (centres undefined) are 48.5 nM, 36.9 nM and 8.11 µM.
In the same order, the values of `COCCNC(=S)N(Cc1ccc(F)cc1)Cc1cc2ccc(C)c(C)c2[nH]c1=O` are 64.2 nM, 412 nM and > 10 µM.
For `CC1=C(C(=O)OC(C)C)C(c2ccc([N+](=O)[O-])cc2)C2=C(CC(C)(C)CC2=O)N1` (centres undefined), the EC50 in data set [1] is 255 nM; in data set [3], 1560 nM. The CC50 in data set [2] was determined as 40 µM.
On the same counts, the results for `CCOc1ccc(N2C(=O)C3C4CC(C(Br)C4Br)C3C2=O)cc1` (centres undefined) are 441 nM, > 12500 nM and > 72.5 µM.
`CCc1ccc(NC(=O)C2c3ccccc3C(=O)N(CC(C)C)C2c2cccs2)cc1` (centres undefined): the EC50 was 607 nM in data set [1] and 2300 nM in data set [3]. In addition, the CC50 in data set [2] was > 100 µM.
On the same counts, the results for `COc1cc(NC(=O)C=Cc2ccccc2Cl)cc(OC)c1OC` are 302 nM, 547 nM and 47.8 µM.
In the same order, the values of `O=C(Nc1ccc(-c2nc3ccc(-c4nc5ccc(NC(=O)c6cccc7ccccc67)cc5[nH]4)cc3[nH]2)cc1)c1cccc2ccccc12` are 641 nM, 742 nM and > 100 µM.
On the same counts, the results for `Cc1ccc(C)c(NC(=O)c2c(-c3c(Cl)cccc3Cl)noc2C)c1` are 443 nM, 218 nM and > 70.7 µM.
In the case of `COC(=O)C1C(=O)C2=C(CC1C)NC(=O)CC2c1cccc(Cl)c1Cl` (centres undefined), the half-maximal effective concentration (EC50) in data set [1] is 617 nM; in data set [3], 814 nM. Also, the 50% cytotoxic concentration (CC50) in data set [2] is > 100 µM.
Take `CC(C)N1CC=C(c2c[nH]c3ccccc23)CC1`: the EC50 in data set [1] came out at 637 nM; in data set [3], 206 nM. Further, in data set [2], the CC50 is > 100 µM.
On to `O=C1C2C(C(=O)N1c1ccc(Cl)c(C(F)(F)F)c1)C1(c3ccccc3)C(=O)C2(c2ccccc2)C(c2ccccc2)=C1c1ccccc1` (centres undefined), for which the EC50 in data set [1] was determined as 616 nM; in data set [3], 442 nM. In addition, in data set [2], the CC50 is > 100 µM.
On to `Cc1cc(C)n(CC(O)Cn2c3ccc(Br)cc3c3cc(Br)ccc32)n1` (centres undefined), for which the results for the EC50 in data set [1] and in data set [3] were 284 nM and 1040 nM, respectively. The compound also came in with a CC50 in data set [2] of 45.4 µM.
On to `COC(=O)[C@@H]1C[C@@H](NC(=O)c2ccc(OC)cc2)CN1CC(c1ccccc1)c1ccccc1`, for which the concentration giving a half-maximal response (EC50) in data set [1] is < 25.7 nM; in data set [3] it was 1150 nM. For the same compound, in data set [2], the half-maximal cytotoxic concentration (CC50) is > 4.17 µM.
In the same order, the values of `COC(=O)C1=CN(Cc2ccc(OC)cc2)C=C(C(=O)OC)C1c1cccs1` are 602 nM, 5640 nM and > 100 µM.
In the same order, the values of `COc1ccc(Br)cc1CNC(=O)CCCN1C(=O)COc2ccc(C)cc21` are 628 nM, 1880 nM and > 100 µM.
On the same counts, the results for `Cc1ccc(C)c(Nc2nc(NCc3ccccc3)c3ccccc3n2)c1` are 90.2 nM, 246 nM and 14.5 µM.
In the case of `CCOc1ccc(N(C(=O)C2COc3ccccc3O2)C(C(=O)NC2CCCCC2)c2cn(C)nc2C)cc1` (centres undefined), the EC50 amounted to 614 nM in data set [1] and 443 nM in data set [3]. Besides, in data set [2], the 50% cytotoxic concentration (CC50) was > 100 µM.
On to `CC(C)(C)CC(C)(C)Nc1c(-c2ccccc2OC(=O)c2ccc(C(F)(F)F)cc2)nc2ccccn12`, for which the EC50 in data set [1] stood at 64 nM; in data set [3], 670 nM. Further, the CC50 in data set [2] is > 10 µM.
On to `Cc1c2c(n3c(nc4ccccc43)c1C#N)N(CCN(C)C)CC2`, for which the 50% effective concentration (EC50) came out at 638 nM in data set [1] and 419 nM in data set [3]. The 50% cytotoxic concentration (CC50) in data set [2] was > 100 µM.
On the same counts, the results for `Cc1cc2cc(C3C(C#N)=C(N)Oc4c3ccc3ccccc43)c(Cl)nc2cc1Cl` (centres undefined) are 629 nM, 240 nM and > 100 µM.
In the same order, the values of `OC1=C2C(=Nc3ccccc3SC2c2ccco2)c2ccccc21` (centres undefined) are 350 nM, 251 nM and 55.3 µM.
On the same counts, the results for `CN(C)c1ccc(-c2n(C)c3ccccc3[n+]2C)cc1` are 636 nM, 1120 nM and > 100 µM.
In the case of `Cc1nc2c(C)cccc2c(O)c1CC=C(Cl)Cl`, the EC50 stood at 609 nM in data set [1] and 1110 nM in data set [3]. In addition, the cytotoxic concentration (CC50) in data set [2] is > 100 µM.
On the same counts, the results for `CCOC(=O)c1cnc2c(C)cccc2c1Nc1cccc(C(C)=O)c1` are 607 nM, 1020 nM and > 100 µM.
